# Assays:
# Assay in all cases: relative viability (nuclei count vs DMSO), 5 days (fraction); higher = more cells survive
# COR-L23 = system: COR-L23
# Summary of the method: (§1)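 The day after seeding in 1536-well plates, lung cancer cell lines were treated by pin tool with a single drug, or with a fixed anchor-drug dose together with five library-drug doses (not always all listed) in √10 steps. After 5 days, a combined fix-and-stain solution (final 0.05% Triton X-100, 1% formaldehyde, 1 ug/ml Hoechst) was added. Nuclei counted on 4× images gave relative viability as treated counts over vehicle counts, reported as the median of duplicate plates.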
# EPLC-272H = system: EPLC-272H
# Summary of the method: as §1
# HARA = system: HARA
# Summary of the method: as §1
# HCC-15 = system: HCC-15
# Summary of the method: as §1
# HCC-78 = system: HCC-78
# Summary of the method: as §1
# LC-2-ad = system: LC-2-ad
# Summary of the method: as §1
# LU99A = system: LU99A
# Summary of the method: as §1
# NCI-H1651 = system: NCI-H1651
# Summary of the method: as §1
# NCI-H1915 = system: NCI-H1915
# Summary of the method: as §1
# NCI-H1993 = system: NCI-H1993
# Summary of the method: as §1
# NCI-H2009 = system: NCI-H2009
# Summary of the method: as §1
# NCI-H2085 = system: NCI-H2085
# Summary of the method: as §1
smiles,measurement,setting,value
COc1cc(N2CCC(C(N)=O)CC2)ccc1Nc1nc(N)c(Cl)c(Nc2ccccc2S(=O)(=O)C(C)C)n1 [HG-5-88-01] + CC(=O)Nc1cccc(-n2c(=O)n(C3CC3)c(=O)c3c(Nc4ccc(I)cc4F)n(C)c(=O)c(C)c32)c1 [Trametinib] (partner 0.02 µM),relative viability,COR-L23; first compound 0.04 µM,0.502
same,relative viability,COR-L23; first compound 0.1265 µM,0.664
same,relative viability,COR-L23; first compound 0.4 µM,0.51
same,relative viability,COR-L23; first compound 1.265 µM,0.488
same,relative viability,COR-L23; first compound 4 µM,0.368
same,relative viability,EPLC-272H; first compound 0.04 µM,0.316
same,relative viability,EPLC-272H; first compound 0.1265 µM,0.308
same,relative viability,EPLC-272H; first compound 0.4 µM,0.279
same,relative viability,EPLC-272H; first compound 1.265 µM,0.205
same,relative viability,EPLC-272H; first compound 4 µM,0.0984
same,relative viability,HARA; first compound 0.04 µM,1.01
same,relative viability,HARA; first compound 0.1265 µM,0.709
same,relative viability,HARA; first compound 0.4 µM,0.91
same,relative viability,HARA; first compound 1.265 µM,0.394
same,relative viability,HARA; first compound 4 µM,0.465
same,relative viability,HCC-15; first compound 0.04 µM,0.372
same,relative viability,HCC-15; first compound 0.1265 µM,0.359
same,relative viability,HCC-15; first compound 0.4 µM,0.36
same,relative viability,HCC-15; first compound 1.265 µM,0.314
same,relative viability,HCC-15; first compound 4 µM,0.251
same,relative viability,HCC-78; first compound 0.04 µM,0.737
same,relative viability,HCC-78; first compound 0.1265 µM,0.455
same,relative viability,HCC-78; first compound 0.4 µM,0.492
same,relative viability,HCC-78; first compound 1.265 µM,0.289
same,relative viability,HCC-78; first compound 4 µM,0.348
same,relative viability,LC-2-ad; first compound 0.04 µM,0.934
same,relative viability,LC-2-ad; first compound 0.1265 µM,0.86
same,relative viability,LC-2-ad; first compound 0.4 µM,0.865
same,relative viability,LC-2-ad; first compound 1.265 µM,0.896
same,relative viability,LC-2-ad; first compound 4 µM,0.993
same,relative viability,LU99A; first compound 0.04 µM,0.584
same,relative viability,LU99A; first compound 0.1265 µM,0.565
same,relative viability,LU99A; first compound 0.4 µM,0.543
same,relative viability,LU99A; first compound 1.265 µM,0.429
same,relative viability,LU99A; first compound 4 µM,0.493
same,relative viability,NCI-H1651; first compound 0.04 µM,0.918
same,relative viability,NCI-H1651; first compound 0.1265 µM,0.862
same,relative viability,NCI-H1651; first compound 0.4 µM,0.799
same,relative viability,NCI-H1651; first compound 1.265 µM,0.744
same,relative viability,NCI-H1651; first compound 4 µM,0.957
same,relative viability,NCI-H1915; first compound 0.04 µM,0.327
same,relative viability,NCI-H1915; first compound 0.1265 µM,0.338
same,relative viability,NCI-H1915; first compound 0.4 µM,0.353
same,relative viability,NCI-H1915; first compound 1.265 µM,0.313
same,relative viability,NCI-H1915; first compound 4 µM,0.317
same,relative viability,NCI-H1993; first compound 0.04 µM,0.413
same,relative viability,NCI-H1993; first compound 0.1265 µM,0.458
same,relative viability,NCI-H1993; first compound 0.4 µM,0.447
same,relative viability,NCI-H1993; first compound 4 µM,0.45
same,relative viability,NCI-H2009; first compound 0.04 µM,0.272
same,relative viability,NCI-H2009; first compound 0.1265 µM,0.271
same,relative viability,NCI-H2009; first compound 0.4 µM,0.264
same,relative viability,NCI-H2009; first compound 1.265 µM,0.211
same,relative viability,NCI-H2009; first compound 4 µM,0.295
same,relative viability,NCI-H2085; first compound 0.04 µM,0.613
same,relative viability,NCI-H2085; first compound 0.1265 µM,0.553

# From the supplement of paper PMC10307832
